Test results from patent publication US20200206233A1 (INTEGRAL BIOSCIENCES PRIVATE LIMITED, priority 2018, published 2020).

How the values were obtained:
[1] = target: T1, IDH1-WT (Homo sapiens, UniProt O75874); experiment: IDH1-WT Fluorescence Assay (Resazurin based); assay type: biochemical; details: 1 nM IDH1-WT, 200 μM isocitrate, 15 μM NADP+, 30 min at room temperature
T1 construct: purchased BPS Bioscience 71075-2
Protocol: IC50 values of compounds against IDH1-WT was determined by Resazurin based Fluorescence assay. Assays were performed in Buffer (50 mM Tris HCl, 10 mM MgCl2, 0.03% BSA, 2 mM ß-mercaptoethanol) where total reaction volume was 25 μL in low-volume 96-well plates. Serially diluted compounds (3-fold) in DMSO (0.5% in final reaction) were incubated with cocktail of isocitrate (200 μM; Cat # I1252-1G, Sigma), NADP^+ (15 μM; Cat # N0505-500MG, Sigma) and buffer for 5 min, following addition of IDH1-WT enzyme (1 nM; Cat #71075-2, BPS Bioscience) and incubated in dark at room temperature for 30 min. After that, 12.5 μL detection solution containing Resazurin (60 μM; Cat #62758-13-8, Sigma) and Diaphorase (40 μg/ml; Cat # D2197-300UN, Sigma) in buffer was added and incubated for 15 min. Readings were taken using a Synergy Neo Plate reader (BioTek, Winooski) at single excitation of 540 nm and emission at 590 nm respectively.
The % (percent) activity of test samples was calculated as (Sample−Min)×100/(Max−Min). [Max: DMSO control, complete reaction with enzyme with DMSO and Min: No enzyme with DMSO]. Percent inhibition (100−% activity) was fitted to the “four-parameter logistic model” in XLfit for determination of IC50 values.

[2] = target: T2, mutant IDH1 (R132C) HT1080 cells (Homo sapiens, UniProt O75874, R132C); experiment: Cellular 2-HG assay using mutant IDH1 (R132C) HT1080 cells; assay type: cell-based; details: 48 h treatment, 0.003 to 3 μM, 2-HG in cell culture media
T2 construct: host or cells: HT1080
T2 sequence (O75874 2-414 R132C limits assumed): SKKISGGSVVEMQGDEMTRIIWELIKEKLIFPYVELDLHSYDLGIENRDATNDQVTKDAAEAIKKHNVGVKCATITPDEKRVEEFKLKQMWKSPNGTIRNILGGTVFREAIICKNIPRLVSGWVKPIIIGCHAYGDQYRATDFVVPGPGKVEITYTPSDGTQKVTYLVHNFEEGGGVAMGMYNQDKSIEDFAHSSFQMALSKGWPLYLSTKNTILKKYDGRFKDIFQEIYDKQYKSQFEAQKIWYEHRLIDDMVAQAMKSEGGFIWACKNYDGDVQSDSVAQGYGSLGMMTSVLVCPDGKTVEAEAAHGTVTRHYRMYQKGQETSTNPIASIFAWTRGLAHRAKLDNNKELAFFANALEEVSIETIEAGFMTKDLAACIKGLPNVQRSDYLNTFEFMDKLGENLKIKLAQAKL
Protocol: HT1080 (ATCC® CCL-121™) cells were plated in a 12 well plate (Nunc™ Cell-Culture Treated Multidish; Cat #150628) at a cell density of 5×10^4 cells/well. Cells were then treated with various concentrations of test/reference compounds (ranging from 0.003 to 3 μM) or vehicle for 48 h under cell culture conditions (in CO2 incubator, 5% CO2, 37° C.). Metabolites were extracted from cell culture media by precipitation method and IC50 values of compounds were determined by Resazurin based Fluorescence assay. Assay buffer contained 100 mM HEPES pH 8.0, 100 μM NAD^+ (Sigma; Cat # N1630-100MG), […] HGDH, 5 μM resazurin (Cat #62758-13-8, Sigma) and 0.01 U/ml diaphorase (Cat # D2197-300UN, Sigma). Total assay volume was 100 μl. 75 μl of assay buffer was added to 25 μl sample volume (supernatant) and incubated at RT in the dark for 30 min in black 96-well plates (Thermo Scientific). Fluorometric detection was done using a Synergy Neo Plate reader (BioTek, Winooski) at single excitation of 540 nm and emission at 590 nm respectively).
(§1) The % activity of test samples was calculated as (Sample−Min)×100/(Max−Min). [Max: DMSO control, complete reaction with enzyme with DMSO and Min: No enzyme with DMSO]. Percent inhibition (100−% activity) was fitted to the “four-parameter logistic model” in XLfit for determination of IC50 values.

[3] = target: T3, IDH1 mutant (R132H) (Homo sapiens, UniProt O75874, R132H); experiment: Mutant IDH1-R132H Fluorescence Assay (Resazurin based); assay type: biochemical; details: 10 nM IDH1 R132H, 4 mM α-ketoglutarate, NADPH, 1.5 h at room temperature
T3 construct: purchased BPS Bioscience 71099-2
T3 sequence (O75874 whole entry R132H): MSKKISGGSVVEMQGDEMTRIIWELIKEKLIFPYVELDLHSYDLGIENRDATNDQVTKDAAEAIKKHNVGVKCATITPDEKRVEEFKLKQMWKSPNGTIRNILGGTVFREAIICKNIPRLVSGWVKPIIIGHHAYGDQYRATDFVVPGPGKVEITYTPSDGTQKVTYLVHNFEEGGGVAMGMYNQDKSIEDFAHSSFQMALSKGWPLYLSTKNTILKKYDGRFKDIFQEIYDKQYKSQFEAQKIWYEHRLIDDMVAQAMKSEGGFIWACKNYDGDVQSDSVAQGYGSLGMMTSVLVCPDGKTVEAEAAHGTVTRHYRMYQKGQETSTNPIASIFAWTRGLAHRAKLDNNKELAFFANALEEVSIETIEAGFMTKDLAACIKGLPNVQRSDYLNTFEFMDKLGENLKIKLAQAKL
How it was run: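 Recombinant IDH1 R132H (10 nM) was run with α-ketoglutarate (4 mM) and NADPH ([…]) for 1.5 h at room temperature in Tris pH buffer with MgCl2, BSA and mercaptoethanol. Remaining NADPH was detected via diaphorase/resazurin fluorescence (ex 540/em 590 nm). IC50 came from a 4-parameter logistic fit.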

[4] = target: T4, IDH2 mutant (R140Q) (Homo sapiens, UniProt P48735, R140Q); experiment: Mutant IDH2-R140Q Fluorescence Assay (Resazurin based); assay type: biochemical; details: 5 nM IDH2 R140Q, 4 hr pre-incubation, 1 mM α-ketoglutarate, 5 μM NADPH, 2 h
T4 construct: purchased BPS Bioscience 71100-2
T4 sequence (P48735 40-452 R140Q): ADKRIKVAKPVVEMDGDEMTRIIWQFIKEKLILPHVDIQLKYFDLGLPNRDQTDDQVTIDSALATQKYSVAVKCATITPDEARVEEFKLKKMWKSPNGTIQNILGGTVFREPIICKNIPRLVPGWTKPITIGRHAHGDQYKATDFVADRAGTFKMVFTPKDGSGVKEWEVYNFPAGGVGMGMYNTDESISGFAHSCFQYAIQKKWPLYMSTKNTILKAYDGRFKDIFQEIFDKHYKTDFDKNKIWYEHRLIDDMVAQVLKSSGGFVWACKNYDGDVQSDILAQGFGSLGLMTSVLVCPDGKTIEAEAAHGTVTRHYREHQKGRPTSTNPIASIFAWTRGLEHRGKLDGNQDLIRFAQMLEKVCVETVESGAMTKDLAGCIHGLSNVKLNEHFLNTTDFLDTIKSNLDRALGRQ
Protocol: IC50 values of compounds against IDH2 mutant (R140Q) were determined by Resazurin based Fluorescence assay. Assay was performed in Buffer (25 mM Tris HCl, 150 mM NaCl, 10 mM MgCl2, 0.03% BSA, 2 mM 1-mercaptoethanol) where total reaction volume was 12.5 μL in low-volume 384-well plates (Cat #4511, Corning). Serially diluted compounds (3-fold) were pre-incubated with IDH2 R140Q mutant enzyme (5 nM; Cat #71100-2, BPS Bioscience) for 4 hr at RT (25° C.) followed by addition of cocktail of α-ketoglutarate (1 mM; Cat #75892-25G, Sigma), and NADPH (5 μM; Cat # N1630-100MG, Sigma) with buffer in dark at room temperature for 2 h. After 2 h incubation, 6.25 μL detection solution containing Resazurin (30 μM; (Cat #62758-13-8, Sigma) and Diaphorase (40 ug/ml; Cat # D2197-300UN, Sigma) in buffer was added and incubated for 15 min. Readings were taken in a Synergy Neo Plate reader (BioTek, Winooski) at single excitation of 540 nm and emission at 590 nm respectively.
as §1

T1 sequence (O75874 whole entry): as the sequence (O75874 whole entry R132H) above, with H132R counted along it

Row | Structure (SMILES) | IC50 [1] [nM] | IC50 [2] [nM] | IC50 [3] [nM] | IC50 [4] [nM]
1 | Cc1nc(N[C@@H](C)c2cc3cc(Cl)ccc3[nH]c2=O)nc(N2C(=O)OC[C@@H]2[C@H](C)F)n1 [Compound 1.59, (R)-3-(4-((S)-1-(6-chloro-2-oxo-1,2-dihydroquinolin-3-yl)ethylamino)-6-methyl-1,3,5-triazin-2-yl)-4-((S)-1-fluoroethyl) oxazolidin-2-one] | > 50000 | 271 | 178 | > 50000
2 | Cc1nc(N[C@@H](C)c2ccc(Oc3ccccc3)cc2)nc(N2C(=O)OC[C@@H]2[C@H](C)F)n1 [Compound 1.64, (R)-4-((S)-1-fluoroethyl)-3-(4-methyl-6-((S)-1-(4-phenoxyphenyl)ethylamino)-1,3,5-triazin-2-yl)oxazolidin-2-one] | > 50000 | 36 | 227 | > 50000
3 | CC[C@H]1COC(=O)N1c1nc(C)nc(N[C@@H](C)c2cc3cc(Cl)c(OC)cc3[nH]c2=O)n1 [Compound 1.42, (S)-3-(4-((S)-1-(6-chloro-7-methoxy-2-oxo-1,2-dihydroquinolin-3-yl)ethylamino)-6-methyl-1,3,5-triazin-2-yl)-4-ethyloxazolidin-2-one] | > 50000 | 556 | 84 | > 50000
4 | CC[C@H]1COC(=O)N1c1nc(C)nc(N[C@@H](C)c2cc3cc(Cl)ccc3[nH]c2=O)n1 [Compound 1.38, (S)-3-(4-((S)-1-(6-chloro-2-oxo-1,2-dihydroquinolin-3-yl)ethylamino)-6-methyl-1,3,5-triazin-2-yl)-4-ethyloxazolidin-2-one] | > 50000 | 634 | 144 | > 50000
5 | CC[C@H]1COC(=O)N1c1nc(C)nc(N[C@@H](C)c2ccc(Oc3ccccc3)cc2)n1 [Compound 1.44, (S)-4-ethyl-3-(4-methyl-6-((S)-1-(4-phenoxyphenyl)ethylamino)-1,3,5-triazin-2-yl)oxazolidin-2-one] | > 50000 | 168 | 209 | > 50000
6 | CC[C@H]1COC(=O)N1c1nc(C)nc(N[C@@H](C)c2cc3cc(Cl)c(OC(C)C)cc3[nH]c2=O)n1 [Compound 1.104, (S)-3-(4-((S)-1-(6-chloro-7-isopropoxy-2-oxo-1,2-dihydroquinolin-3-yl)ethylamino)-6-methyl-1,3,5-triazin-2-yl)-4-ethyloxazolidin-2-one] | > 50000 | 94 | 75 | > 50000
7 | Cc1cc(-c2cnc([C@H](C)Nc3ncnc(N4C(=O)OC[C@@H]4C(C)C)n3)nc2)ccc1F [Compound 1.1, (S)-3-(4-((S)-1-(5-(4-fluoro-3-methylphenyl)pyrimidin-2-yl)ethylamino)-1,3,5-triazin-2-yl)-4-isopropyloxazolidin-2-one] | > 50000 | – | 2770 | > 50000
8 | CC[C@H]1COC(=O)N1c1nc(C)nc(N[C@@H](C)c2ccc(Oc3ccc(C)cc3)cc2)n1 [Compound 1.83, (S)-4-ethyl-3-(4-methyl-6-((S)-1-(4-(p-tolyloxy)phenyl)ethylamino)-1,3,5-triazin-2-yl)oxazolidin-2-one] | > 50000 | – | 340 | > 50000
9 | CC[C@H]1COC(=O)N1c1nc(C)nc(N[C@H](C)c2cc3cc(Cl)c(OC(C)C)cc3[nH]c2=O)n1 [Compound 1.105, (S)-3-(4-((R)-1-(6-chloro-7-isopropoxy-2-oxo-1,2-dihydroquinolin-3-yl)ethylamino)-6-methyl-1,3,5-triazin-2-yl)-4-ethyloxazolidin-2-one] | > 50000 | – | 660 | > 50000
10 | CC[C@H]1COC(=O)N1c1nc(C)nc(N[C@@H](C)c2ccc3ccn(-c4ccccc4)c3c2)n1 [Compound 1.85, (S)-4-ethyl-3-(4-methyl-6-((S)-1-(1-phenyl-1H-indol-6-yl)ethylamino)-1,3,5-triazin-2-yl)oxazolidin-2-one] | > 50000 | – | 914 | > 50000
11 | CC[C@H]1COC(=O)N1c1nc(C)nc(N[C@@H](C)c2cn(-c3ccc(Cl)cc3)cn2)n1 [Compound 1.50, (S)-3-(4-((S)-1-(1-(4-chlorophenyl)-1H-imidazol-4-yl)ethylamino)-6-methyl-1,3,5-triazin-2-yl)-4-ethyloxazolidin-2-one] | > 50000 | 413 | 456 | > 50000
